These are literature values, as cited in US4231928A, “Antibacterial agents” (priority 1979, dated 1980).

In the data set the test system is Pseudomonas aeruginosa. As to conditions: prior art penicillins; cited from earlier work.

Structures are written as SMILES.

`CC1(C)S[C@@H]2[C@H](NC(=O)C(C(=O)O)c3ccccc3)C(=O)N2[C@H]1C(=O)O` (stereo partly shown) [Carbenicillin, reference compound]: the “potency against Pseudomonas aeruginosa (in words)” value is reported as “only a relatively low potency”.
